Test results taken from patent US20220195666A1, “USE OF A PLURALITY OF SALT IONIC LIQUIDS IN THE PRETREATMENT OF BIOMASS” (priority 2020, published 2022).

assay: Thermal gravimetric analysis of the ILs and DSILs; type: physicochemical; details: TGA under nitrogen, 10° C./min
Experimental: Thermal behavior was determined using a Mettler Toledo Stare TGA/DSC1 unit (Mettler Toledo, Leicester, UK) under nitrogen. Samples between 3 and 10 mg were placed in alumina crucibles (70 μL) and heated from room temperature to 75° C. at a heating rate of 10° C./min. An isotherm at 75° C. was maintained for 30 min to eliminate all volatiles, if any. After the isothermal step, the temperature was ramped to 800° C. at a heating rate of 10° C./min. The data was analyzed using STARe Evaluation software.

Q: For `CCCCCCCCCCCCCCCC(=O)[O-].C[N+](C)(C)CCO` [[Ch][Pal], cholinium palmitate], which “T5% (decomposition temperature of 5% sample)” value is on record?
A: 177.7 °C

Q: What about the “T50% (decomposition temperature of 50% sample)” value of the same molecule?
A: 225.3 °C

Q: For `C[N+](C)(C)CCO.NCCCC[C@H](N)C(=O)[O-]` [[Ch][Lys], cholinium lysinate], which “T5% (decomposition temperature of 5% sample)” value is on record?
A: 155.9 °C

Q: And the “T50% (decomposition temperature of 50% sample)” value?
A: 218.1 °C

Q: For `CC(=O)[O-].C[N+](C)(C)CCO` [[Ch][Ace], cholinium acetate], which “T5% (decomposition temperature of 5% sample)” value is on record?
A: 173.1 °C

Q: What about the “T50% (decomposition temperature of 50% sample)” value of the same molecule?
A: 211.4 °C

Q: With `CCCCCCCC(=O)[O-].C[N+](C)(C)CCO` [[Ch][Oct], cholinium octanoate] as the molecule, how does the “T5% (decomposition temperature of 5% sample)” value read?
A: 180.7 °C

Q: And the “T50% (decomposition temperature of 50% sample)” value?
A: 209.5 °C
